Test results reported in ChEMBL document CHEMBL3608252, “Dietziamides, novel tetramic acid dimers from Dietzia timorensis MZ-3 with antioxidative activity” (Bioorg Med Chem Lett, 2015).
Calls of active or inactive are those of the source. The rule behind the calls is not given here.

What was measured:
[1] = Antioxidant activity assessed as DPPH redical scavenging activity incubated for 2 hrs in dark condition; assay type: physicochemical
P388 = experiment: Cytotoxicity against mouse P388 cells at 0.78 to 100 uM after 4 days by MTT assay; assay type: functional, cell-based
Candida albicans = experiment: Antimicrobial activity against Candida albicans assessed as growth inhibition at 1.25 to 10 ug/disk incubated for 1 to 2 days by disk diffusion assay; assay type: functional, organism-based
Bacillus subtilis = experiment: Antimicrobial activity against Bacillus subtilis assessed as growth inhibition at 1.25 to 10 ug/disk incubated for 1 to 2 days by disk diffusion assay; assay type: functional, organism-based
Saccharomyces cerevisiae = experiment: Antimicrobial activity against Saccharomyces cerevisiae assessed as growth inhibition at 1.25 to 10 ug/disk incubated for 1 to 2 days by disk diffusion assay; assay type: functional, organism-based

C/C=C1\NC(=O)C(C(C2=C(O)/C(=C/C)NC2=O)[C@H](O)CO)=C1O (stereo partly specified)
IC50 [1]: 37 µM | Activity (P388): inactive | growth inhibition (GI) (Candida albicans): inactive | growth inhibition (GI) (Bacillus subtilis): inactive | growth inhibition (GI) (Saccharomyces cerevisiae): inactive

O=C1O[C@H]([C@@H](O)CO)C(O)=C1O [ASCORBIC ACID]
IC50 [1]: 13 µM

C/C=C1\NC(=O)C(CC2=C(O)/C(=C/C)NC2=O)=C1O
IC50 [1]: 34 µM | Activity (P388): inactive | growth inhibition (GI) (Candida albicans): inactive | growth inhibition (GI) (Bacillus subtilis): inactive | growth inhibition (GI) (Saccharomyces cerevisiae): inactive
